# Assay results: article PMC10755004, “Pyrimidine salvage in Toxoplasma gondii as a target for new treatment” (Frontiers in Cellular and Infection Microbiology, 2023)
# Several values for one entry are separate records, joined by “and”; a condition that tells them apart may be missing. Equal entries are not always repeated. Where two headings read alike, the source gives them in different places.
# Assays:
# [1] = test system: T. gondii intracellular tachyzoites; assay: Drug sensitivity assay for T. gondii tachyzoites in HFF cells (RFP fluorescence, 6 days); assay type: cell-based, Toxoplasma gondii; details: for effect on intracellular tachyzoites: concentrations up to 25 µM; for in vitro activity compared with sulfadiazine (in words): EC50 against T. gondii vs sulfadiazine; for EC50: intracellular tachyzoites in HFF, 6 days
# Method: The in vitro inhibitory effects of antimicrobial nucleoside agents on T. gondii growth were determined in HFF cell cultures using 96-well black plates (Optical-Bottom Plates with Polymer Base, Thermo Fisher Scientific). 150 – 200 µL of HFF cells were seeded into 96-well black plates and incubated for 3-5 days at 37°C under 5% CO2 in a humidified incubator. Once the HFF cells became confluent the supernatant was discarded and replaced with 100 µL fresh DMEMc media. Sulfadiazine (positive control) and the nucleoside compounds were already dissolved in DMSO at known concentrations, usually prepared as 10 mM. After that, every compound was diluted in DMEMc at 4x final concentration. The assays were performed in duplicate or triplicate throughout. 100 µL of 4x compounds were transferred to the wells of the first column of a 96-well black plate of which each well contained HFF cells in 100 µL DMEMc. The compounds were mixed, and 100 µL was transferred using the multichannel pipette to the next column before being transferred to each column through the entire plate over one row, leaving the last column as a negative control without drug. After that, naturally, freshly egressed parasites were collected and filtered through a 3-µm filter (Sigma-Aldrich). ~1000 parasites/well were added in 100 µL DMEMc (giving a total volume of 200 µL/well) and incubated for 6 days at a 37°C/5% CO2 in a humidified incubator. On day 6, a PHERAstar plate reader (BMG Labtech, Germany) was used to read the fluorescence intensity at 540 nm for excitation and 590 nm for emission. The EC50 values and fluorescence data were determined and plotted by using Prism 8.0 (GraphPad). Each experiment was independently performed 3-5 times.
# Most published protocols for in vitro drug screening against T. gondii use the MTT assay, which is a colorimetric assay that relies on tetrazolium salt and is used for accessing cell viability, cell proliferation and cytotoxicity for the host cells ([Jin et al., 2012]). Our protocol is an adaptation from a method that was used to evaluate antiretroviral compounds against T. gondii tachyzoites ([Wang et al., 2019]). These authors added 5×10^4 cells/mL freshly egressed tachyzoites to each well of a 96-well plate with an HFF cell monolayer, followed by incubation for 4 h to allow the cells to invade the host cells; the medium containing extracellular tachyzoites was then removed and fresh medium containing the desired concentration of the antiretroviral drugs was added to the wells and incubated for 5 days at 37°C and 5% CO2 in a humidified incubator ([Wang et al., 2019]). In our adaptation of this protocol, we aimed to eliminate the step of wash/removal of tachyzoites, in order to increase reproducibility. We thus prepared the serial dilutions of compounds in the 96-well plates containing the HFF monolayer cells and then added the lower number of 1×10^4 cells/mL freshly lysed tachyzoites to the 96-well plates, already containing both the HFF monolayer cells and tested compounds. The plates were then incubated for 6 days at 37°C and 5% CO2 in a humidified incubator. A major advantage that was introduced was detection of T. gondii in the wells, which was achieved by measuring fluorescence of the RFP-expressing parasites.
# [2] = target: uridine/uracil transporter 1 (TgUUT1); assay: Transport of 0.1 µM [3H]-uridine into extracellular T. gondii tachyzoites (oil-stop technique); assay type: cell-based, Toxoplasma gondii; details: for Ki: inhibition of 0.1 µM [3H]-uridine transport; for δ(ΔG^0): loss of binding energy compared with uridine; for inhibition of [3H]-uridine uptake: 0.1 µM [3H]-uridine, 5 min; for Gibbs free energy of binding: from Km/Ki on [3H]-uridine transport; for Km: 0.1 µM label, tachyzoites, n=3
# [3] = test system: T. gondii; assay: Mouse model of acute toxoplasmosis, parasite burden in lung by qPCR; assay type: in vivo, C57BL/6J mice; details: pyrimidines 25 mg/kg i.p., sulfadiazine oral in water, lung parasite burden day 10
# [4] = test system: HFF cells; assay: cells; details: Homo sapiens, 144 h
# [5] = test system: HFF cells; details: for S.I.: selectivity index, HFF cytocidal EC50/tachyzoite EC50; for EC50: read-out: HFF ctotoxicity EC50 Cytostatic, uninfected HFF, 6 days
# [6] = test system: uridine/uracil transporter 1 (TgUUT1); assay: Transport of 0.1 µM [3H]-uracil into extracellular T. gondii tachyzoites (oil-stop technique); assay type: cell-based, Toxoplasma gondii; details: for Ki: inhibition of 0.1 µM [3H]-uracil transport
# [7] = test system: TgAT1; parameters: method as in Chiang et al., 1999; details: TgAT1 expressed in X. laevis oocytes; ref Chiang et al., 1999; cited from earlier work
# [8] = test system: T. gondii tachyzoites; assay: Uptake of tritiated pyrimidines by T. gondii tachyzoites over time; assay type: cell-based, Toxoplasma gondii
# [9] = test system: T. gondii; parameters: method as in el Kouni et al., 1999; details: ref el Kouni et al., 1999; read-out: EC50 against T. gondii; cited from earlier work
# [10] = read-out: HFF ctotoxicity EC50 Cytostatic
# [11] = read-out: HFF ctotoxicity EC50 Cytostatic (second column)
compound,measurement,setting,value
"O=c1ccn([C@H]2CC[C@@H](CO)O2)c(=O)[nH]1 [2’,3’-dideoxyuridine]",effect on intracellular tachyzoites,[1],no effect
O=c1ccn([C@H]2C[C@H](O)[C@@H](CO)O2)c(=O)[nH]1 [2’-Deoxyuridine],Ki,[2],134 ± 31 µM
same,δ(ΔG^0),[2],2.15 kcal/mol and 2.17 kcal/mol
same,effect on intracellular tachyzoites,[1],no effect
Cc1cn([C@H]2CC[C@@H](CO)O2)c(=O)[nH]c1=O [3’-deoxythymidine],effect on intracellular tachyzoites,[1],no effect
"O=c1[nH]c(=O)n([C@H]2C[C@H](O)[C@@H](CO)O2)cc1F [5-F,2’dUrd, 5-fluoro-2’deoxyuridine]","efficacy against acute toxoplasmosis, comparison between treatments",[3],significantly less effective
same,"efficacy against acute toxoplasmosis, comparison between treatments","[3]; listed as 5F,2’-deoxyuridine",similarly effective as sulfadiazine
same,EC50,[4]; [10],0.19 ± 0.05 µM
same,EC50,[4]; [11],1480 ± 510 µM
same,S.I.,[5],2205
same,in vitro activity compared with sulfadiazine (in words),[1],well below
same,EC50,"[1]; Toxoplasma gondii, 144 h",0.67 ± 0.07 µM
"O=c1[nH]cc(F)c(=O)[nH]1 [5-FU, 5-fluorouracil]","efficacy against acute toxoplasmosis, comparison between treatments",[3],not significantly different from sulfadiazine
same,"efficacy against acute toxoplasmosis, comparison between treatments",[3]; listed as 5F-uracil,similarly effective as sulfadiazine
same,EC50,[4]; [10],2.49 ± 0.43 µM
same,EC50,[4]; [11],3070 ± 340 µM
same,δ(ΔG^0),[6]; 5-FU Ki compared to uracil Km,0.717 kcal/mol
same,Ki,[6],6.8 ± 2.12 µM
same,S.I.,[5],2720
same,Ki,[2],5.24 ± 0.72 µM
same,in vitro activity compared with sulfadiazine (in words),[1],well below
same,EC50,"[1]; Toxoplasma gondii, 144 h",1.13 ± 0.16 µM
"O=c1[nH]c(=O)n([C@@H]2O[C@H](CO)[C@@H](O)[C@H]2O)cc1F [5-FUrd, 5-Flourouridine]",EC50,"[5]; first (low concentration) phase, growth inhibition",0.11 ± 0.1 µM
same,EC50,[5]; second phase (cytocidal per footnote and text),20.4 ± 1 µM
same,S.I.,[5],45
same,in vitro activity compared with sulfadiazine (in words),[1],well below
same,EC50,[1],0.45 ± 0.02 µM
Cc1cn([C@@H]2O[C@H](CO)[C@@H](O)[C@H]2O)c(=O)[nH]c1=O [5-Methyluridine],Ki,[2],2380 ± 774 µM
C[C@H]1O[C@@H](n2ccc(=O)[nH]c2=O)[C@H](O)[C@@H]1O [5’-deoxyuridine],effect on intracellular tachyzoites,[1],no effect
Nc1ncnc2c1ncn2[C@@H]1O[C@H](CO)[C@@H](O)[C@H]1O [Adenosine],inhibition of TgUUT1 uridine uptake,[2]; 2500-fold excess of unlabeled inhibitor,~ 70%
same,Ki,[2],112 ± 6 µM
same,Km,[7],114 µM
"Nc1ncnc2c1ncn2[C@@H]1O[C@H](CO)[C@@H](O)[C@@H]1O [Ara-A, adenine arabinoside]",EC50,[1],11.4 ± 1.8 µM
Nc1ccn([C@@H]2O[C@H](CO)[C@@H](O)[C@H]2O)c(=O)n1 [Cytidine],Rate of uptake,[8]; 0.20 µM radiolabel,0.0029 ± 0.0004 pmol(10^7 cells)^-1min^-1
same,Rate of uptake,"[8]; 0.20 µM radiolabel, listed as [^3H]-cytidine",0.0029 pmol(10^7 cells)^-1min^-1
O=c1[nH]cnc2c1ncn2[C@@H]1O[C@H](CO)[C@@H](O)[C@H]1O [Inosine],Ki,[2],28.2 ± 4.1 µM
O=[N+]([O-])c1ccc(CSc2ncnc3c2ncn3[C@@H]2O[C@H](CO)[C@@H](O)[C@H]2O)cc1 [NBMPR],EC50,[1],3.19 ± 0.14 µM
same,EC50,[9],10.2 µM
CCc1nc(N)nc(N)c1-c1ccc(Cl)cc1 [Pyrimethamine],EC50,"[1]; Toxoplasma gondii, 144 h",16.2 µM
Nc1ccc(S(=O)(=O)Nc2ncccn2)cc1 [Sulfadiazine],EC50,"[1]; Toxoplasma gondii, 144 h",12.4 ± 1.08 µM
Cc1cn([C@H]2C[C@H](O)[C@@H](CO)O2)c(=O)[nH]c1=O [Thymidine],inhibition of [3H]-thymidine uptake,"[8]; 0.25 µM [3H]-thymidine over 10 min, 1 mM unlabeled inhibitor",did not significantly inhibit
same,Rate of uptake,"[8]; 0.25 µM radiolabel, over 10 min",0.00071 ± 0.00016 pmol(10^7 cells)^-1min^-1
same,inhibition of [3H]-uridine uptake,[2]; 250 µM inhibitor,somewhat inhibited
same,Gibbs free energy of binding,[2],-4.09 kcal/mol
same,Ki,[2],1010 ± 145 µM
same,δ(ΔG^0),[2],3.37 kcal/mol and 3.39 kcal/mol
O=c1cc[nH]c(=O)[nH]1 [Uracil],Rate of uptake,[8]; 0.10 µM radiolabel,0.026 ± 0.0014 pmol(10^7 cells)^-1min^-1
same,Rate of uptake,"[8]; 0.10 µM radiolabel, listed as [^3H]-uracil",0.026 pmol(10^7 cells)^-1min^-1
same,Vmax,[6]; [3H]-uracil as substrate,0.166 pmol(10^7 cells)^-1 min^-1
same,Km,"[6]; [3H]-uracil as substrate, 0.1 µM label, tachyzoites, n=3",2.05 ± 0.4 µM
same,inhibition of [3H]-uridine uptake,[2]; 250 µM inhibitor,80%
same,Ki,[2],1.15 ± 0.07 µM
O=c1ccn([C@@H]2O[C@H](CO)[C@@H](O)[C@H]2O)c(=O)[nH]1 [Uridine],Rate of uptake,[8]; 0.10 µM radiolabel,0.011 ± 0.0006 pmol(10^7 cells)^-1min^-1
same,inhibition of [3H]-cytidine uptake,"[8]; 0.2 µM [3H]-cytidine, 1 mM unlabeled inhibitor",fully inhibited
same,inhibition of [3H]-thymidine uptake,"[8]; 0.25 µM [3H]-thymidine, 250 µM inhibitor",did not inhibit
same,inhibition at 250 µM,"[8]; Toxoplasma gondii, [3H]-cytidine, 250 µM inhibitor",100%
same,Ki,[6],2.44 ± 0.59 µM
same,inhibition of [3H]-uridine uptake,[2]; 1 mM unlabeled inhibitor,90%
same,Vmax,[2]; [3H]-uridine as substrate,1.21 ± 0.24 pmol(10^7 cells)^-1 min^-1
same,Km,"[2]; [3H]-uridine as substrate, listed as [^3H]-uridine",3.34 ± 0.82 µM
same,Km,"[2]; [3H]-uridine as substrate, listed as uridine",3.3 ± 0.8 µM
same,Gibbs free energy of binding,[2],-7.46 kcal/mol
